Measurements from patent publication US7709471B2, “Compounds” (AstraZeneca AB, priority 2006, dated 2010).

Test system: human colon tumour cell line HT29
Experiment: Cellular Assay (phosphohistone H3 Ser10 mitotic marker, HT29)
Format: cell-based
Details: HT-29, 24 h, HT29 cells, read-out: IC50 (cellular assay, phosphohistone H3)
Description: Chromosome condensation in mitosis is accompanied by phosphorylation of histone H3 on serine 10.
After 24 hours, cells were fixed in 3.7% (v/v) formaldehyde then permeabilised and blocked for 10 minutes in 100 μl 0.5% (v/v) Triton X-100, 1% (w/v) bovine serum albumin (BSA) in phosphate buffered saline (PBS). […] The raw assay data were analysed by non-linear regression analysis and used to determine an IC50 value for each compound.

SMILES	IC50
CN1CCC(NC(=O)c2cc(Cl)c(Nc3ncc4c(n3)N(C3CCCC3)CC3(CC3)C(=O)N4C)cc2F)CC1 [Example 389, 5-chloro-4-(9′-cyclopentyl-5′-methyl-6′-oxo-5′,6′,8′,9′-tetrahydrospiro[cyclopropane-1,7′-pyrimido[5,4-b][1,4]diazepine]-2′-ylamino)-2-fluoro-N-(1-methyl-4-piperidyl)benzamide]	< 300 nM
CN(C)CCNC(=O)c1ccc(Nc2ncc3c(n2)N(C2CCCC2)CC2(CC2)C(=O)N3C)c(Cl)c1 [Example 390, 3-chloro-4-(9′-cyclopentyl-5′-methyl-6′-oxo-5′,6′,8′,9′-tetrahydrospiro[cyclopropane-1,7′-pyrimido[5,4-b][1,4]diazepine]-2′-ylamino)-N-(2-dimethylaminoethyl)benzamide]	< 1000 nM
CN1C(=O)C2(CC2)CN(C2CCCC2)c2nc(Nc3ccc(C(=O)NCCN4CCCC4)cc3Cl)ncc21 [Example 391, 3-chloro-4-(9′-cyclopentyl-5′-methyl-6′-oxo-5′,6′,8′,9′-tetrahydrospiro[cyclopropane-1,7′-pyrimido[5,4-b][1,4]diazepine]-2′-ylamino)-N-(2-pyrrolidin-1-ylethyl)benzamide]	< 300 nM
CN(C)CC(C)(C)CNC(=O)c1ccc(Nc2ncc3c(n2)N(C2CCCC2)CC2(CC2)C(=O)N3C)c(Cl)c1 [Example 392, 3-chloro-4-(9′-cyclopentyl-5′-methyl-6′-oxo-5′,6′,8′,9′-tetrahydrospiro[cyclopropane-1,7′-pyrimido[5,4-b][1,4]diazepine]-2′-ylamino)-N-(3-dimethylamino-2,2-dimethyl-propyl)benzamide]	< 300 nM
CCN1CCC(NC(=O)c2cc(Cl)c(Nc3ncc4c(n3)N(C3CCCC3)CC3(CC3)C(=O)N4C)cc2F)CC1 [Example 393, 5-chloro-4-(9′-cyclopentyl-5′-methyl-6′-oxo-5′,6′,8′,9′-tetrahydrospiro[cyclopropane-1,7′-pyrimido[5,4-b][1,4]diazepine]-2′-ylamino)-N-(1-ethyl-4-piperidyl)-2-fluoro-benzamide]	< 300 nM
CN1C(=O)C2(CC2)CN(C2CCCC2)c2nc(Nc3cc(F)c(C(=O)NC4CCC(N(C)C)CC4)cc3Cl)ncc21 (stereo not drawn) [Example 394, 5-chloro-4-(9′-cyclopentyl-5′-methyl-6′-oxo-5′,6′,8′,9′-tetrahydrospiro[cyclopropane-1,7′-pyrimido[5,4-b][1,4]diazepine]-2′-ylamino)-N-(4-dimethylaminocyclohexyl)-2-fluoro-benzamide]	< 300 nM
CCN1CCC(NC(=O)c2cc(F)c(Nc3ncc4c(n3)N(C3CCCC3)CC3(CC3)C(=O)N4C)cc2F)CC1 [Example 395, 4-(9′-cyclopentyl-5′-methyl-6′-oxo-5′,6′,8′,9′-tetrahydrospiro[cyclopropane-1,7′-pyrimido[5,4-b][1,4]diazepine]-2′-ylamino)-N-(1-ethyl-4-piperidyl)-2,5-difluoro-benzamide]	< 300 nM
CN1CCC(NC(=O)c2cc(F)c(Nc3ncc4c(n3)N(C3CCCC3)CC3(CC3)C(=O)N4C)cc2F)CC1 [Example 396, 4-(9′-cyclopentyl-5′-methyl-6′-oxo-5′,6′,8′,9′-tetrahydrospiro[cyclopropane-1,7′-pyrimido[5,4-b][1,4]diazepine]-2′-ylamino)-2,5-difluoro-N-(1-methyl-4-piperidyl)benzamide]	< 300 nM
CN1C(=O)C2(CC2)CN(C2CCCC2)c2nc(Nc3cc(F)c(C(=O)NCCN4CCCC4)cc3F)ncc21 [Example 397, 4-(9′-cyclopentyl-5′-methyl-6′-oxo-5′,6′,8′,9′-tetrahydrospiro[cyclopropane-1,7′-pyrimido[5,4-b][1,4]diazepine]-2′-ylamino)-2,5-difluoro-N-(2-pyrrolidin-1-ylethyl)benzamide]	< 300 nM
COc1cc(C(=O)NCCN2CCCC2)c(F)cc1Nc1ncc2c(n1)N(C1CCCC1)CC1(CC1)C(=O)N2C [Example 398, 4-(9′-cyclopentyl-5′-methyl-6′-oxo-5′,6′,8′,9′-tetrahydrospiro[cyclopropane-1,7′-pyrimido[5,4-b][1,4]diazepine]-2′-ylamino)-2-fluoro-5-methoxy-N-(2-pyrrolidin-1-ylethyl)benzamide]	< 300 nM
COc1cc(C(=O)N[C@@H]2CCN(C)C2)c(F)cc1Nc1ncc2c(n1)N(C1CCCC1)CC1(CC1)C(=O)N2C [Example 399, 4-(9′-cyclopentyl-5′-methyl-6′-oxo-5′,6′,8′,9′-tetrahydrospiro[cyclopropane-1,7′-pyrimido[5,4-b][1,4]diazepine]-2′-ylamino)-2-fluoro-5-methoxy-N-[(3R)-1-methylpyrrolidin-3-yl]benzamide]	< 300 nM
CN1CC[C@@H](NC(=O)c2cc(F)c(Nc3ncc4c(n3)N(C3CCCC3)CC3(CC3)C(=O)N4C)cc2F)C1 [Example 400, 4-(9′-cyclopentyl-5′-methyl-6′-oxo-5′,6′,8′,9′-tetrahydrospiro[cyclopropane-1,7′-pyrimido[5,4-b][1,4]diazepine]-2′-ylamino)-2,5-difluoro-N-[(3R)-1-methylpyrrolidin-3-yl]benzamide]	< 300 nM
COc1cc(C(=O)NCC(C)(C)CN2CCCC2)ccc1Nc1ncc2c(n1)N(C1CCCC1)CC1(CC1)C(=O)N2C [Example 401, 4-(9′-cyclopentyl-5′-methyl-6′-oxo-5′,6′,8′,9′-tetrahydrospiro[cyclopropane-1,7′-pyrimido[5,4-b][1,4]diazepine]-2′-ylamino)-N-(2,2-dimethyl-3-pyrrolidin-1-yl-propyl)-3-methoxy-benzamide]	< 300 nM
CN1C(=O)C2(CC2)CN(C2CCCC2)c2nc(Nc3ccc(C(=O)NC4C[C@H]5CCC[C@@H](C4)N5C)cc3Cl)ncc21 (stereo partly drawn) [Example 402, 3-chloro-4-(9′-cyclopentyl-5′-methyl-6′-oxo-5′,6′,8′,9′-tetrahydrospiro[cyclopropane-1,7′-pyrimido[5,4-b][1,4]diazepine]-2′-ylamino)-N-[(1S,5R)-9-methyl-9-azabicyclo[3.3.1]non-7-yl]benzamide]	< 300 nM
COc1cc(C(=O)NC2C[C@H]3CCC[C@@H](C2)N3C)c(F)cc1Nc1ncc2c(n1)N(C1CCCC1)CC1(CC1)C(=O)N2C (stereo partly drawn) [Example 404, 4-(9′-cyclopentyl-5′-methyl-6′-oxo-5′,6′,8′,9′-tetrahydrospiro[cyclopropane-1,7′-pyrimido[5,4-b][1,4]diazepine]-2′-ylamino)-2-fluoro-5-methoxy-N-[(1S,5R)-9-methyl-9-azabicyclo[3.3.1]non-3-yl]benzamide]	< 300 nM
COc1cc(C(=O)NCC2(CN3CCCC3)CC2)c(F)cc1Nc1ncc2c(n1)N(C1CCCC1)CC1(CC1)C(=O)N2C [Example 405, 4-(9′-cyclopentyl-5′-methyl-6′-oxo-5′,6′,8′,9′-tetrahydrospiro[cyclopropane-1,7′-pyrimido[5,4-b][1,4]diazepine]-2′-ylamino)-2-fluoro-5-methoxy-N-[[1-(pyrrolidin-1-ylmethyl)cyclopropyl]methyl]benzamide]	< 1000 nM
CCN1CCC(NC(=O)c2ccc(Nc3ncc4c(n3)N(C3CCCC3)CC3(CC3)C(=O)N4C)c(F)c2)CC1 [Example 406, 4-(9′-cyclopentyl-5′-methyl-6′-oxo-5′,6′,8′,9′-tetrahydrospiro[cyclopropane-1,7′-pyrimido[5,4-b][1,4]diazepine]-2′-ylamino)-N-(1-ethyl-4-piperidyl)-3-fluoro-benzamide]	< 300 nM
CCN1CCC(NC(=O)c2cc(OC)c(Nc3ncc4c(n3)N(C3CCCC3)CC3(CC3)C(=O)N4C)cc2F)CC1 [Example 407, 4-(9′-cyclopentyl-5′-methyl-6′-oxo-5′,6′,8′,9′-tetrahydrospiro[cyclopropane-1,7′-pyrimido[5,4-b][1,4]diazepine]-2′-ylamino)-N-(1-ethyl-4-piperidyl)-2-fluoro-5-methoxy-benzamide]	< 300 nM
CN1CCC(NC(=O)c2ccc(Nc3ncc4c(n3)N(C3CCCC3)CC3(CC3)C(=O)N4C)c3c2OCO3)CC1 [Example 408, 7-(9′-cyclopentyl-5′-methyl-6′-oxo-5′,6′,8′,9′-tetrahydrospiro[cyclopropane-1,7′-pyrimido[5,4-b][1,4]diazepine]-2′-ylamino)-N-(1-methyl-4-piperidyl)benzo[1,3]dioxole-4-carboxamide]	< 300 nM
COc1cc(C(=O)NC2CCN(C)CC2)ccc1Nc1ncc2c(n1)N(C1CCCC1)CC1(CCCC1)C(=O)N2C [Example 409, 4-(9′-cyclopentyl-5′-methyl-6′-oxo-5′,6′,8′,9′-tetrahydrospiro[cyclopentane-1,7′-pyrimido[5,4-b][1,4]diazepine]-2′-ylamino)-3-methoxy-N-(1-methylpiperidin-4-yl)benzamide]	< 300 nM
CN1CCC(NC(=O)c2cc(F)c(Nc3ncc4c(n3)N(C3CCCCC3)CCC(=O)N4C)cc2Cl)CC1 [Example 411, 2-chloro-4-[(2-cyclohexyl-6-methyl-5-oxo-2,6,9,11-tetrazabicyclo[5.4.0]undeca-7,9,11-trien-10-yl)amino]-5-fluoro-N-(1-methyl-4-piperidyl)benzamide]	< 1000 nM
CN1CCC(NC(=O)c2cc(F)c(Nc3ncc4c(n3)N(C3CCCCC3)CCC(=O)N4C)cc2F)CC1 [Example 412, 4-[(2-cyclohexyl-6-methyl-5-oxo-2,6,9,11-tetrazabicyclo[5.4.0]undeca-7,9,11-trien-10-yl)amino]-2,5-difluoro-N-(1-methyl-4-piperidyl)benzamide]	< 300 nM
CN1C(=O)CCN(C2CCCCC2)c2nc(Nc3cc(F)c(C(=O)NCC4(CN5CCCC5)CC4)cc3F)ncc21 [Example 413, 4-[(2-cyclohexyl-6-methyl-5-oxo-2,6,9,11-tetrazabicyclo[5.4.0]undeca-7,9,11-trien-10-yl)amino]-2,5-difluoro-N-[[1-(pyrrolidin-1-ylmethyl)cyclopropyl]methyl]benzamide]	< 1000 nM
CN1CC[C@@H](NC(=O)c2cc(F)c(Nc3ncc4c(n3)N(C3CCCCC3)CCC(=O)N4C)cc2F)C1 [Example 414, 4-[(2-cyclohexyl-6-methyl-5-oxo-2,6,9,11-tetrazabicyclo[5.4.0]undeca-7,9,11-trien-10-yl)amino]-2,5-difluoro-N-[(3R)-1-methylpyrrolidin-3-yl]benzamide]	< 300 nM
